Data taken from patent US9487506B2, “Mineralocorticoid receptor antagonists” (Merck Sharp & Dohme Corp., priority 2011, dated 2016).

Each compound was assayed against T1, full-length human Mineralocorticoid Receptor (MR) (Homo sapiens, UniProt P08235) (assay: human MR NH Pro assay (PathHunter Protein:Protein interaction assay), MR antagonist activity). Details: PathHunter CHO-K1 cells overexpressing human MR; aldosterone 0.3 nM to about 1 nM; 6 hours at 37° C.; luminescence; read-out: IP (rating); IP is the inflection point for a given dose-response titration curve.
T1 construct: host or cells: PathHunter CHO-K1 cells
T1 sequence (P08235 1-984): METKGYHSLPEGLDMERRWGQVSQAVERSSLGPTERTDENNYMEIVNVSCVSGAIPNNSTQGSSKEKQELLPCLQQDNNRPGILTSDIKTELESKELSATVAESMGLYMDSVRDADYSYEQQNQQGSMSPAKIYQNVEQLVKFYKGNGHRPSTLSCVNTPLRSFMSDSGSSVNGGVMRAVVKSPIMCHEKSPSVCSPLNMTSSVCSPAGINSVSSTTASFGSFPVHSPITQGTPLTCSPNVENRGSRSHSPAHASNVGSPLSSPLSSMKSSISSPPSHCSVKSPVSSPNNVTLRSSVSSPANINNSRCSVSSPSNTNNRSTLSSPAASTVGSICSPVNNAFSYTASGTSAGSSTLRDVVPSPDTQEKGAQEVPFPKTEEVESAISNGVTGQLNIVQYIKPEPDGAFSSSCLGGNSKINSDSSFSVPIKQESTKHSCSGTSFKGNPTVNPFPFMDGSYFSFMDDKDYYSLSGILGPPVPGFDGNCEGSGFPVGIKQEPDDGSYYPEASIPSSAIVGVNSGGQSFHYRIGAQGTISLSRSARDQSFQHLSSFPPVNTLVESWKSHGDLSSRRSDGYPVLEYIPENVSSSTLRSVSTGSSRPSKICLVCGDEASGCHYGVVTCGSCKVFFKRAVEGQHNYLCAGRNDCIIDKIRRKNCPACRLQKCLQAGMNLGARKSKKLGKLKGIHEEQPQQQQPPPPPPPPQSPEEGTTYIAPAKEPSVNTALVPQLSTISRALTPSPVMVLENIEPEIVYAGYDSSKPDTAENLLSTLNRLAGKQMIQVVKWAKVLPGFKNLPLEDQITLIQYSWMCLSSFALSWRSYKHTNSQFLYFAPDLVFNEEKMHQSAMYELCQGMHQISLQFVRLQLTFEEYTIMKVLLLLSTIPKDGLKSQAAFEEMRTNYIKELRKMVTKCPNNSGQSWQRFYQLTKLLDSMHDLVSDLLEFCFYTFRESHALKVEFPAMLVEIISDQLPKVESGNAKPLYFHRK
Format: cell-based
Description: The activity of the compounds of the present invention regarding mineralocorticoid receptor antagonism can be evaluated using the following assay.
Assessment of MR Potency in HMR NH Pro Assay
The human MR NH Pro assay is a commercially available PathHunter™ Protein:Protein interaction assay (DiscoveRx; http://www.discoverx.com/nhrs/prod-nhrs.php) that measures the ability of compounds to antagonize full-length human Mineralocorticoid Receptor (MR) binding to a coactivator peptide. PathHunter™ CHO-K1 cells that overexpress human MR (Cat #93-0456C2, Lot No: 09B0913) were cultured in growth media (F12K w/Glutamine and phenol red (Gibco 11765-047) supplemented with 10% HI FBS (Gibco 16000); 0.25 mg/ml Hygromycin in PBS (Invitrogen 10687-010, 50 mg/ml); 100 I.U./mL and 100 μg/mL Pen/Strep (Gibco 15140-122); 0.6 mg/mL Geneticin (Gibco 10131-027).
Compounds were assessed for MR antagonist activity by incubating the cells with a titrating dose of compound in F12K w/Glutamine and phenol red culture media (Invitrogen 11765-047) supplemented with 1% Charcoal/Dextran Treated FBS (Hyclone #SH30068.01) and aldosterone (0.3 nM to about 1 nM) for 6 hours at 37° C. Cells were then treated with DiscoveRx detection reagent for 1 hour at room temperature and read using an Envision luminescence plate reader. % activity was measured relative to cells treated with aldosterone alone and IC50 values were calculated using ADA software.
Stock solution was prepared at 10 μM in DMSO and stored at −20° C. for assay, dilute in assay media to 1.8 or 6 nM (6× of final concentration=about 0.3 nM to about 1.0 nM)
5. Cell line: PathHunter CHO-K1 MR cells Cat #93-0456C2, Lot No: 09B0913, from operation liquid nitrogen stock.
3. The cells concentration was adjusted to 4×10^5 cells/mL.
4. Cells were (25 μL/well) added to the wells of a 384 well plate.
5. The plate was then incubated at 37° C. over night in a humidified incubator with 5% CO2.
6. Test compounds were titrated starting at 4.4 mM, 10-point titration in 1:3 dilution.
7. Aldosterone was diluted in assay media to 1.8 nM or 6 nM from 10 μM stock (final concentration to be about 0.3 nM to about 1.0 nM)
1. 10K exponentially growing cells/well (25 μL) were resuspended in assay media and plated into each well using the Multidrop (Thermo Electron) (use white wall, clear bottom assay plates (Costar #3570) and incubated overnight at 37° C., 5% CO2.
2. 0.25 μL 120× test compound (final DMSO concentration should be <1%) was added to each well n=2, 10 point titrations starting at 36.7 μM final concentration.
3. 5 μL of 6× agonist (final aldosterone concentration should be about 0.3 nM to about 1.0 nM) was added to all wells (using the PlateMate Plus; (ThermoFisher) (except those wells in columns 23 and 24)
4. 5 μL of assay media was added to all wells in column 23 and 24.
5. Cells were then incubated for 6 hrs at 37° C., 5% CO2.
6. 15 μL 3× DiscoveRx detection reagent was then added to each well.
7. Plates were incubated for 1 hour at room temperature in the dark.
8. Plates were read on Envision (PerkinElmer) luminesence plate reader and analyzed using ADA.

| SMILES | IC50 [µM] |
| --- | --- |
| CS(=O)(=O)Nc1cccc2c(C(CCC#N)c3ccc(Cl)cc3F)n[nH]c12 (single isomer, unassigned) [Example 2, N-{3-[1-(4-chloro-2-fluorophenyl)-3-cyanopropyl]-1H-indazol-7-yl}methanesulfonamide (Single Enantiomer)] | < 0.1 |
| CCC(c1ccc(Cl)cc1)(c1n[nH]c2c(NS(C)(=O)=O)cccc12)C(C)O (single isomer, unassigned; diastereoisomer a) [Compound 24A, N-(3-(3-(4-chlorophenyl)-2-hydroxypentan-3-yl)-1H-indazol-7-yl)methane sulfonamide(diastereoisomer A)] | < 0.1 |
| CCC(c1ccc(Cl)cc1)(c1n[nH]c2c(NS(C)(=O)=O)cccc12)C(C)O (single isomer, unassigned; diastereoisomer b) [Compound 24B] | < 0.1 |
| CCC(C#N)(c1ccc(Cl)cc1)c1n[nH]c2c([N+](=O)[O-])cccc12 (stereo not drawn) [Compound 22, 2-(4-chlorophenyl)-2-(7-nitro-1H-indazol-3-yl)butanenitrile] | 0.5 to 6 |
| CCC(C#N)(c1ccc(Cl)cc1)c1n[nH]c2c(NS(C)(=O)=O)cccc12 (stereo not drawn) [Compound 23, N-(3-(1-(4-chlorophenyl)-1-cyanopropyl)-1H-indazol-7-yl)methanesulfonamide] | 0.5 to 6 |
| CCC(CO)(c1ccc(Cl)cc1)c1n[nH]c2c(NS(C)(=O)=O)cccc12 (stereo not drawn) [Compound 25, N-(3-(2-(4-chlorophenyl)-1-hydroxybutan-2-yl)-1H-indazol-7-yl)methane sulfonamide] | < 0.1 |
| Fc1cc(Cl)ccc1Cc1n[nH]c2ccccc12 [Example 1, 3-(4-chloro-2-fluorobenzyl)-1H-indazole] | 0.5 to 6 |
| N#CCCC(c1ccc(Cl)cc1F)c1n[nH]c2c(-c3cccnc3)cccc12 (stereo not drawn) [Example 3, 4-(4-chloro-2-fluorophenyl)-4-(7-pyridin-3-yl-1H-indazol-3-yl)butanenitrile] | 0.5 to 6 |
| N#CCCC(c1ccc(Cl)cc1F)c1n[nH]c2c(-c3ccncc3)cccc12 (stereo not drawn) [Example 4, 4-(4-chloro-2-fluorophenyl)-4-(7-pyridin-4-yl-1H-indazol-3-yl)butanenitrile] | 0.5 to 6 |
| CS(=O)(=O)Nc1cccc2c(C(CCCO)c3ccc(Cl)cc3F)n[nH]c12 (stereo not drawn) [Example 5, N-{3-[1-(4-chloro-2-fluorophenyl)-4-hydroxybutyl]-1H-indazol-7-yl}methanesulfonamide] | 0.1 to 0.5 |
| CS(=O)(=O)Nc1cccc2c(C(CC#N)c3ccc(Cl)cc3F)n[nH]c12 (stereo not drawn) [Example 6, N-{3-[1-(4-chloro-2-fluorophenyl)-2-cyanoethyl]-1H-indazol-7-yl}methanesulfonamide] | 0.5 to 6 |
| N#CCCC(c1ccc(Cl)cc1F)c1n[nH]c2c(NS(=O)(=O)C3CC3)cccc12 (stereo not drawn) [Example 7, N-{3-[1-(4-chloro-2-fluorophenyl)-3-cyanopropyl]-1H-indazol-7-yl}cyclopropanesulfonamide] | 0.5 to 6 |
| Cc1noc(CCC(c2ccc(Cl)cc2F)c2n[nH]c3c(NS(C)(=O)=O)cccc23)n1 (stereo not drawn) [Example 8, N-{3-[1-(4-chloro-2-fluorophenyl)-3-(3-methyl-1,2,4-oxadiazol-5-yl)propyl]-1H-indazol-7-yl}methanesulfonamide] | 0.5 to 6 |
| CC(=O)CCC(c1ccc(Cl)cc1F)c1n[nH]c2c(NS(C)(=O)=O)cccc12 (stereo not drawn) [Example 9, N-{3-[1-(4-chloro-2-fluorophenyl)-4-oxopentyl]-1H-indazol-7-yl}methanesulfonamide] | 0.5 to 6 |
| CC(C)(O)CCC(c1ccc(Cl)cc1F)c1n[nH]c2c(NS(C)(=O)=O)cccc12 (stereo not drawn) [Example 10, n-{3-[1-(4-chloro-2-fluorophenyl)-4-hydroxy-4-methylpentyl]-1H-indazol-7-yl}methanesulfonamide] | 0.5 to 6 |
| CCC(O)(CC)CCC(c1ccc(Cl)cc1F)c1n[nH]c2c(NS(C)(=O)=O)cccc12 (stereo not drawn) [Example 11, N-{3-[1-(4-chloro-2-fluorophenyl)-4-hydroxy-4-ethylhexyl]-1H-indazol-7-yl}methanesulfonamide] | 0.5 to 6 |
| N#CCCC(c1ccc(Cl)cc1F)c1n[nH]c2ccccc12 (stereo not drawn) [Example 12, 4-(4-chloro-2-fluorophenyl)-4-(1H-indazol-3-yl)butanenitrile] | 0.5 to 6 |
| Cn1nc(C(CCC#N)c2ccc(Cl)cc2F)c2ccccc21 (stereo not drawn) [Example 13, 4-(4-chloro-2-fluorophenyl)-4-(1-methyl-1H-indazol-3-yl)butanenitrile] | 0.5 to 6 |
| CCn1nc(C(CCC#N)c2ccc(Cl)cc2F)c2ccccc21 (stereo not drawn) [Example 14, 4-(4-chloro-2-fluorophenyl)-4-(1-ethyl-1H-indazol-3-yl)butanenitrile] | 0.5 to 6 |
| CCCn1nc(C(CCC#N)c2ccc(Cl)cc2F)c2ccccc21 (stereo not drawn) [Example 15, 4-(4-chloro-2-fluorophenyl)-4-(1-propyl-1H-indazol-3-yl)butanenitrile] | 0.5 to 6 |
| N#CCCC(c1ccc(Cl)cc1F)c1nn(Cc2ccccc2)c2ccccc12 (stereo not drawn) [Example 16, 4-(1-benzyl-1H-indazol-3-yl)-4-(4-chloro-2-fluorophenyl)butanenitrile] | 0.5 to 6 |
| COC(=O)Cn1nc(C(CCC#N)c2ccc(Cl)cc2F)c2ccccc21 (stereo not drawn) [Example 17A, methyl {3-[1-(4-chloro-2-fluorophenyl)-3-cyanopropyl]-1H-indazol-1-yl}acetate] | 0.5 to 6 |
| CC(C)(C)OC(=O)Cn1nc(C(CCC#N)c2ccc(Cl)cc2F)c2ccccc21 (stereo not drawn) [Example 17B, tert-Butyl {3-[1-(4-chloro-2-fluorophenyl)-3-cyanopropyl]-1H-indazol-1-yl}acetate] | 0.5 to 6 |
| COC(=O)CCn1nc(C(CCC#N)c2ccc(Cl)cc2F)c2ccccc21 (stereo not drawn) [Example 17C, Methyl 3-{3-[1-(4-chloro-2-fluorophenyl)-3-cyanopropyl]-1H-indazol-1-yl}propanoate] | 0.5 to 6 |
| CSCn1nc(C(CCC#N)c2ccc(Cl)cc2F)c2ccccc21 (stereo not drawn) [Example 17D, 4-(4-chloro-2-fluorophenyl)-4-{1-[(methyl-sulfanyl)-methyl]-1H-indazol-3-yl}-butanenitrile] | 0.5 to 6 |

Same assay, conditions: enantiomers from chiral SFC OJ-H separation of the racemate

| SMILES | relative MR antagonist activity of the separated enantiomers |
| --- | --- |
| CS(=O)(=O)Nc1cccc2c(C(CCC#N)c3ccc(Cl)cc3F)n[nH]c12 (single isomer, unassigned) [Example 2, N-{3-[1-(4-chloro-2-fluorophenyl)-3-cyanopropyl]-1H-indazol-7-yl}methanesulfonamide (Single Enantiomer)] | more active |
| CS(=O)(=O)Nc1cccc2c(C(CCC#N)c3ccc(Cl)cc3F)n[nH]c12 (single isomer, unassigned) [second peak, N-{3-[1-(4-Chloro-2-fluorophenyl)-3-cyanopropyl]-1H-indazol-7-yl}methanesulfonamide] | less active |
